Assays:
Assay in all cases: relative viability (nuclei count vs DMSO), 5 days (fraction); higher = more cells survive
Cediranib + Decitabine = compound: COc1cc2c(Oc3ccc4[nH]c(C)cc4c3F)ncnc2cc1OCCCN1CCCC1 [Cediranib] + Nc1ncn([C@H]2C[C@H](O)[C@@H](CO)O2)c(=O)n1 [Decitabine] (partner 2 µM)
Method in brief: (§1)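 Values are medians from duplicate plates. Each reflects relative viability, defined as the nuclei count of treated wells over that of vehicle wells. Lung cancer cell lines in 1536-well plates were pin-tool dosed one day after seeding with one drug alone or with a fixed anchor-drug dose plus five library-drug doses (not always all listed) in √10 steps, then fixed, stained and imaged at 4× after 5 days.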

Cediranib + Olaparib = compound: COc1cc2c(Oc3ccc4[nH]c(C)cc4c3F)ncnc2cc1OCCCN1CCCC1 [Cediranib] + O=C(c1cc(Cc2n[nH]c(=O)c3ccccc23)ccc1F)N1CCN(C(=O)C2CC2)CC1 [Olaparib] (partner 8 µM)
Method in brief: as §1

Decitabine + Tozasertib = compound: Nc1ncn([C@H]2C[C@H](O)[C@@H](CO)O2)c(=O)n1 [Decitabine] + Cc1cc(Nc2cc(N3CCN(C)CC3)nc(Sc3ccc(NC(=O)C4CC4)cc3)n2)n[nH]1 [Tozasertib] (partner 0.1 µM)
Method in brief: as §1

Halofuginone + Dasatinib = compound: O=C(C[C@H]1NCCC[C@@H]1O)Cn1cnc2cc(Br)c(Cl)cc2c1=O (racemic) [Halofuginone] + Cc1nc(Nc2ncc(C(=O)Nc3c(C)cccc3Cl)s2)cc(N2CCN(CCO)CC2)n1 [Dasatinib] (partner 0.075 µM)
Method in brief: as §1

Cell Line | relative viability (Cediranib + Decitabine; first compound 0.04 µM) | relative viability (Cediranib + Decitabine; first compound 0.1265 µM) | relative viability (Cediranib + Decitabine; first compound 0.4 µM) | relative viability (Cediranib + Decitabine; first compound 1.265 µM) | relative viability (Cediranib + Decitabine; first compound 4 µM) | relative viability (Cediranib + Olaparib; first compound 0.04 µM) | relative viability (Cediranib + Olaparib; first compound 0.1265 µM) | relative viability (Cediranib + Olaparib; first compound 0.4 µM) | relative viability (Cediranib + Olaparib; first compound 1.265 µM) | relative viability (Cediranib + Olaparib; first compound 4 µM) | relative viability (Decitabine + Tozasertib; first compound 0.04 µM) | relative viability (Decitabine + Tozasertib; first compound 0.1265 µM) | relative viability (Decitabine + Tozasertib; first compound 0.4 µM) | relative viability (Decitabine + Tozasertib; first compound 1.265 µM) | relative viability (Decitabine + Tozasertib; first compound 4 µM) | relative viability (Halofuginone + Dasatinib; first compound 0.001 µM) | relative viability (Halofuginone + Dasatinib; first compound 0.003162 µM) | relative viability (Halofuginone + Dasatinib; first compound 0.01 µM) | relative viability (Halofuginone + Dasatinib; first compound 0.03162 µM) | relative viability (Halofuginone + Dasatinib; first compound 0.1 µM)
NCI-H358 | 0.214 | 0.256 | 0.215 | 0.186 | 0.213 | 0.659 | 0.66 | 0.503 | 0.64 | 0.666 | 0.121 | 0.0951 | 0.0825 | 0.1 | 0.0948 | 0.175 | 0.188 | 0.115 | 0.0901 | 0.0916
NCI-H441 | 0.288 | 0.234 | 0.275 | 0.251 | 0.286 | 0.564 | 0.605 | 0.597 | 0.702 | 0.575 | 0.296 | 0.269 | 0.208 | 0.234 | 0.317 | 0.654 | 0.576 | 0.668 | 0.459 | 0.237
NCI-H460 | 0.505 | 0.47 | 0.485 | 0.479 | 0.587 | 0.53 | 0.411 | 0.403 | 0.424 | 0.362 | 0.325 | 0.24 | 0.27 | 0.0551 | 0.0621 | 0.571 | 0.542 | 0.445 | 0.349 | 0.157
NCI-H520 | 0.572 | 0.588 | 0.502 | 0.488 | 0.459 | 0.365 | 0.353 | 0.355 | 0.298 | 0.3 | 0.402 | 0.444 | 0.386 | 0.352 | 0.308 | 0.215 | 0.173 | 0.175 | 0.16 | 0.17
NCI-H522 | 0.702 | 0.746 | 0.76 | 0.661 | 0.656 | 0.685 | 0.631 | 0.678 | 0.69 | 0.646 | 0.538 | 0.624 | 0.376 | 0.446 | 0.37 | 0.894 | 0.863 | 1.06 | 0.806 | 0.881
NCI-H596 | 1.04 | 1.1 | 0.978 | 0.918 | 1.18 | 0.798 | 0.8 | 0.721 | 0.99 | 0.731 | 0.733 | 0.87 | – | 0.526 | 0.466 | 0.538 | 0.533 | 0.598 | 0.559 | 0.366
NCI-H647 | 0.415 | 0.414 | 0.448 | 0.349 | 0.405 | 0.772 | 0.652 | 0.501 | 0.551 | 0.437 | 0.262 | 0.192 | 0.172 | 0.0834 | 0.105 | 0.219 | 0.216 | 0.188 | 0.171 | 0.099
NCI-H650 | 0.315 | 0.271 | 0.302 | 0.302 | 0.348 | 0.331 | 0.282 | 0.423 | 0.405 | 0.583 | 0.562 | 0.468 | 0.372 | 0.264 | 0.245 | 0.528 | 0.478 | 0.47 | 0.452 | 0.367
NCI-H661 | 0.663 | 0.598 | 0.529 | 0.531 | 0.588 | 0.763 | 0.785 | 0.713 | 0.703 | 0.817 | 0.345 | 0.33 | 0.341 | 0.318 | 0.348 | 0.954 | 0.884 | 0.856 | 0.79 | 0.378
NCI-H727 | 0.818 | 0.692 | 0.793 | 0.894 | 0.909 | 0.656 | 0.679 | 0.684 | 0.728 | 0.73 | 0.587 | 0.445 | 0.518 | 0.754 | 0.747 | 0.417 | 0.411 | 0.397 | 0.396 | 0.263
NCI-H838 | 0.497 | 0.376 | 0.432 | 0.383 | 0.506 | 0.786 | 0.764 | 0.734 | 0.722 | 0.756 | 0.196 | 0.236 | 0.188 | 0.191 | 0.176 | 0.312 | 0.307 | 0.339 | 0.228 | 0.17
NCI-H1355 | 0.331 | 0.359 | 0.353 | 0.367 | 0.429 | 0.689 | 0.727 | 0.723 | 0.787 | 0.784 | 0.315 | 0.334 | 0.263 | 0.224 | 0.224 | 0.762 | 0.764 | 0.727 | 0.692 | 0.458
NCI-H1395 | 0.717 | 0.769 | 0.675 | 0.712 | 0.77 | 0.472 | 0.448 | 0.474 | 0.541 | 0.42 | 0.549 | 0.517 | 0.487 | 0.445 | 0.453 | 0.425 | 0.469 | 0.426 | 0.364 | 0.366
NCI-H1437 | 0.67 | 0.602 | 0.621 | 0.562 | 0.639 | 0.662 | 0.614 | 0.615 | 0.599 | 0.627 | 0.358 | 0.363 | 0.281 | 0.201 | 0.17 | 0.377 | 0.445 | 0.431 | 0.364 | 0.285
NCI-H1650 | 0.408 | 0.482 | 0.354 | 0.496 | 0.385 | 0.825 | 0.801 | 0.771 | 0.707 | 0.845 | 0.247 | 0.297 | 0.289 | 0.169 | 0.193 | 0.339 | 0.329 | 0.293 | 0.2 | 0.166
NCI-H1651 | 0.482 | 0.538 | 0.669 | 0.542 | 0.652 | 0.189 | 0.18 | 0.179 | 0.166 | 0.185 | 0.521 | 0.718 | 0.6 | 0.378 | 0.371 | 0.526 | 0.494 | 0.377 | 0.258 | 0.162
